Reference: patent publication US8754038B2, “Template-fixed peptidomimetics with CCR10 antagonistic activity” (priority 2009, dated 2014)
Numbered stars: 1 amine (or outer) side, 2 acyl side, 3 side chain; on linkers, the order of the positions; unused ones are H or OH. Square brackets hold non-standard residues; d marks the D form. Peptide text beside a SMILES is read from it. * marks the point of attachment. Phe(4-CF3) = N[C@@H](Cc1ccc(C(F)(F)F)cc1)C(=O)O; Trp(5-OH) = N[C@@H](Cc1c[nH]c2ccc(O)cc12)C(=O)O; X7 = O=C([C@H](CCNCc1c[nH]cn1)N[*:1])[*:2]; Oic = O=C(O)[C@@H]1C[C@@H]2CCCC[C@@H]2N1; Phe(4-CN) = N#Cc1ccc(C[C@H](N)C(=O)O)cc1; cisHyp = O=C(O)[C@@H]1C[C@H](O)CN1; Hyp = O=C(O)[C@@H]1C[C@@H](O)CN1; dPip = O=C(O)[C@H]1CCCCN1; Thz = O=C(O)[C@@H]1CSCN1; Ac5c = NC1(C(=O)O)CCCC1; Dab = NCC[C@H](N)C(=O)O; X8 = Cn1cncc1CCC(=O)*; Bn = c1ccc(C*)cc1

Assays:
human CCR10 [1] = target: T1, human CCR10 (Homo sapiens, UniProt P46092); experiment: Calcium flux assay (CCR10 antagonism, CCL27 as agonist); assay type: cell-based; conditions: CCR10 transfected 300-19 murine pre-B cells; CCL27 30 nM
T1 construct: expressed in transfected cells
T1 sequence (P46092 1-362): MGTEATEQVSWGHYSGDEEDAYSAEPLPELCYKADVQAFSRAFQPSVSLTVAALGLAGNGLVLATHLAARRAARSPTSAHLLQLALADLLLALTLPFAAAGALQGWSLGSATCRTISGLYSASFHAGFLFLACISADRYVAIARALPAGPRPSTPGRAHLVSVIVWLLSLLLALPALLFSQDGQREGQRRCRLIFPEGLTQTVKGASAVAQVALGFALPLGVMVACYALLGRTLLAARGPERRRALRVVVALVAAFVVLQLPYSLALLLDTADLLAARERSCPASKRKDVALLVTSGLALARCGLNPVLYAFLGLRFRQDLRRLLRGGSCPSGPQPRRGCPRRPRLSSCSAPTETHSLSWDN
Protocol: (§1) Lyophilized peptides were weighed on a Microbalance (Mettler MX5) and dissolved in aqueous 90% DMSO to a final concentration of 10 mM unless otherwise stated. Stock solutions were kept at +4° C., and protected from light.
(§2) Peptides were assayed for CCR10 antagonism in a calcium flux assay and in a chemotaxis assay using a mouse pre-B cell line 300-19 stably transfected with human CCR10, and with human CCL27 as agonist.
The calcium flux release was assessed using CCR10 transfected 300-19 murine pre-B cells. These cells were labeled as a batch with Calcium4 Reagent (Molecular Devices, Sunnyvale, Calif.) in HBSS buffer for 60 min.
After dispensing 8×10^4 cells in each well of a 384-well black plate, a concentrated solution of the β-hairpin peptidomimetics of this invention in HBSS+0.1% BSA+0.1% DMSO (final concentration) was added to the cells. The entire plate was centrifuged and placed in a Flexstation II (Molecular Devices) automated plate reader. After reading a 20 s baseline, the Flexstation dispensed CCL27 (RnD systems) at a final concentration of 30 nM in HBSS+0.1% BSA onto the cells and calcium flux was measured for an additional 70 s.
Alternatively a FIipR384 (Molecular Devices) was used for read out of the 384-well plates. In this case about 8×10^4 cells were placed in each well, centrifuged, placed in the FlipR and after 5 s of baseline reading, the β-hairpin peptidomimetics in HBSS+0.1% BSA+0.1% DMSO (final concentration) were added. After an incubation time of 5 min, the CCL27 solution was added to the mixture and the calcium flux was measured for 200 s.
The maximum signal was determined from control wells without inhibitor. Percentage of inhibition was calculated from a range of compound concentrations, which were subsequently used to calculate IC50 values (Softmax Pro, Molecular Devices). All steps were carried out at room temperature.

human CCR10 [2] = target: T1, human CCR10; experiment: Chemotaxis assay (CCR10-transfected 300-19 cells, CCL27 gradient); assay type: cell-based; conditions: CCR10-transfected 300-19 murine pre-B cells; 30 nM CCL27 gradient
Protocol: as §1, §2
The chemotactic response of CCR10-transfected 300-19 murine pre-B cells to a gradient of CCL27 (CTACK) was measured using disposable Transwell® assay plates from Costar (5 μm pore size) according to the protocol of the manufacturer. Briefly, cells were grown under sterile conditions at 37° C. with 5% CO2 in flasks containing RPMI+5% FCS, glutamine, penicillin/streptomycin (all media components were from Life Technologies) and the appropriate selection antibiotics (Puromycin, G418 or Tetracycline). For the assay, cells were pelleted by centrifugation, washed once in Dulbecco's phosphate buffered saline (DPBS), and resuspended to give 1×10^6 cells/ml in RPMI+0.5% bovine serum albumin (BSA). 100 μl of cell suspension was applied to the top of the assay filter. The β-hairpin peptidomimetics, diluted in the same assay medium, were added to both top and bottom chambers. The cells were allowed to migrate for 4-6 hours at 37° C. into the bottom chamber of the assay plate containing 30 nM of CCL27 (RnD systems). Migrated cells were counted using a FACS cytometer (Cytomics FC500, Beckman Coulter). Data normalization was performed using the number of any cells that had migrated in the absence of the β-hairpin peptidomimetic and the number of cells that have randomly migrated in absence of CCL27 [these values were taken as 100% (no inhibitory activity) and 0%, respectively]. From a range of compound concentrations IC50 were determined using Prism5 (GraphPad software).

| SMILES | IC50 (human CCR10 [1]) | IC50 (human CCR10 [2]) |
| --- | --- | --- |
| O=C1NC2(CCCC2)C(=O)N[C@@H](Cc2c[nH]c3ccccc23)C(=O)N[C@@H](CCNCc2c[nH]cn2)C(=O)N2CCC[C@@H]2C(=O)N2[C@@H](C[C@@H]3CCCC[C@@H]32)C(=O)N[C@H]1Cc1c[nH]c2ccccc12 [Ex. 106, cyclo(-Trp-Cyp-Trp-Dab(A55)-^DPro-Oic-)] (cyclo([Ac5c]W[X7][dP][Oic]W)) | 12.2 ± 3.8 nM | 4.8 nM |
| NC(=O)CC[C@@H]1NC(=O)[C@H](Cc2c[nH]c3ccccc23)NC(=O)C2(CCCC2)NC(=O)[C@H](Cc2c[nH]c3ccc(O)cc23)NC(=O)[C@@H]2CSCN2C(=O)[C@H]2CCCN2C1=O [Ex. 7, cyclo(-Trp(5OH)-Cyp-Trp-Gln-^DPro-Thz-)] (cyclo([Trp(5-OH)][Ac5c]WQ[dP][Thz])) | 144 ± 84.1 nM | 3.1 nM |
| Cn1cncc1CCC(=O)NCC[C@@H]1NC(=O)[C@H](Cc2c[nH]c3ccccc23)NC(=O)C2(CCCC2)NC(=O)[C@H](Cc2ccc(C(F)(F)F)cc2)NC(=O)[C@@H]2C[C@@H]3CCCC[C@@H]3N2C(=O)[C@H]2CCCN2C1=O [Ex. 108, cyclo(-Phe(4CF3)-Cyp-Trp-Dab(A56)-^DPro-Oic-)] (cyclo([Ac5c]W[Dab](X8)[dP][Oic][Phe(4-CF3)])) | 34.5 ± 17.3 nM | 2.5 nM |

Results, then the compound that gave them:

| IC50 (human CCR10 [1]) | IC50 (human CCR10 [2]) | SMILES |
| --- | --- | --- |
| 260 ± 154 nM | 60.1 nM | NCC[C@@H]1NC(=O)[C@H](Cc2c[nH]c3ccccc23)NC(=O)C2(CCCC2)NC(=O)[C@H](Cc2c[nH]c3ccccc23)NC(=O)[C@@H]2C[C@H](OCc3ccccc3)CN2C(=O)[C@H]2CCCN2C1=O [Ex. 51, cyclo(-Trp-Cyp-Trp-Dab-^DPro-(4S)-Hyp(Bn)-)] (cyclo([Ac5c]W[Dab][dP][cisHyp](Bn)W)) |
| 181 ± 110 nM | 5.3 nM | N#Cc1ccc(C[C@@H]2NC(=O)[C@@H]3C[C@@H](OCc4ccccc4)CN3C(=O)[C@H]3CCCN3C(=O)[C@H](CCN)NC(=O)[C@H](Cc3c[nH]c4ccccc34)NC(=O)C3(CCCC3)NC2=O)cc1 [compound 49, cyclo(-Phe(4CN)-Cyp-Trp-Dab-^DPro-Hyp(Bn)-)] (cyclo([Ac5c]W[Dab][dP][Hyp](Bn)[Phe(4-CN)])) |
| 0.5 ± 0.2 nM | 1.8 nM | N#Cc1ccc(C[C@@H]2NC(=O)[C@@H]3C[C@@H](OCc4ccccc4)CN3C(=O)[C@H]3CCCCN3C(=O)[C@H](CO)NC(=O)[C@H](Cc3c[nH]c4ccccc34)NC(=O)C3(CCCC3)NC2=O)cc1 [compound 50, cyclo(-Phe(4CN)-Cyp-Trp-Ser-^DPip-Hyp(Bn)-)] (cyclo([Ac5c]WS[dPip][Hyp](Bn)[Phe(4-CN)])) |
